Laboratory results published in the supplement of paper PMC11061612.

What was measured:
Test in all cases: Bliss excess, mean over the matrix (fraction); higher = more synergy
[1] = test system: COLO-668 (Small Cell Lung Carcinoma)
How it was run: (§1)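 Cell lines grown in DMEM/F12 or RPMI with 10% FBS were plated in 1536-well plates and held 24 hours at 37°C, 5% CO2 before 72 hours of exposure to two-drug dose matrices, with DMSO typically at 0.2%. CellTiter-Glo 2.0 luminescence gave viability, which was converted to inhibition. Vehicle wells were set to 0 and blank wells to 1. Combination Emax is the second-highest inhibition in the matrix, and Bliss excess is the observed combination effect minus the expected EA + EB − EA·EB, where EA and EB are the single-agent effects.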

[2] = test system: MOLT-4 (T-Lymphoblastic Leukemia)
How it was run: as §1

[3] = test system: Hey (Ovarian Carcinoma)
How it was run: as §1

[4] = test system: COLO-679 (Melanoma)
How it was run: as §1

[5] = test system: Mo-T (Other Blood Carcinomas)
How it was run: as §1

[6] = test system: EJM (Plasma Cell Myeloma)
How it was run: as §1

[7] = test system: SKN (Other Solid Carcinomas)
How it was run: as §1

[8] = test system: KGN (Other Solid Carcinomas)
How it was run: as §1

[9] = test system: ML-2 (Acute Myeloid Leukemia)
How it was run: as §1

[10] = test system: G-401 (Other Solid Carcinomas)
How it was run: as §1

[11] = test system: MV-4-11 (Acute Myeloid Leukemia)
How it was run: as §1

[12] = test system: NCI-H1092 (Small Cell Lung Carcinoma)
How it was run: as §1

[13] = test system: SNU-387 (Hepatocellular Carcinoma)
How it was run: as §1

[14] = test system: NCI-H1355 (Lung Adenocarcinoma)
How it was run: as §1

[15] = test system: HCC1500 (Breast Carcinoma)
How it was run: as §1

[16] = test system: KMRC-1 (Kidney Carcinoma)
How it was run: as §1

[17] = test system: HCC1937 (Breast Carcinoma)
How it was run: as §1

[18] = test system: A4-Fuk (B-Lymphoblastic Leukemia)
How it was run: as §1

[19] = test system: NCI-H1993 (Lung Adenocarcinoma)
How it was run: as §1

## CCc1c2c(nc3ccc(O)cc13)-c1cc3c(c(=O)n1C2)COC(=O)[C@]3(O)CC [SN-38] + CN(C)CCCOc1ccc(-c2ccc3ncc4c(c3c2)n(C2CCOCC2)c(=O)n4C)cn1 [AZD0156] (first compound max 0.3 µM, 7x7, partner max 1 µM)
[1]
  Bliss excess: -0.0198
[2]
  Bliss excess: 0.069
[3]
  Bliss excess: 0.0372
[4]
  Bliss excess: -0.0767
[5]
  Bliss excess: -0.0527
[6]
  Bliss excess: -0.0052
[7]
  Bliss excess: -0.0094
[8]
  Bliss excess: -0.0065
[9]
  Bliss excess: 0.0256
[10]
  Bliss excess: 0.0568
[11]
  Bliss excess: 0.0414
[12]
  Bliss excess: -0.0472
[13]
  Bliss excess: -0.0373
[14]
  Bliss excess: -0.0107
[15]
  Bliss excess: 0.0076
[16]
  Bliss excess: 0.0671
[17]
  Bliss excess: 0.0605
[18]
  Bliss excess: 0.0222
[19]
  Bliss excess: -0.0008

## CCc1c2c(nc3ccc(O)cc13)-c1cc3c(c(=O)n1C2)COC(=O)[C@]3(O)CC [SN-38] + O=C(c1cc(Cc2n[nH]c(=O)c3ccccc23)ccc1F)N1CCN(C(=O)C2CC2)CC1 [Olaparib] (first compound max 0.3 µM, 7x7, partner max 10 µM)
[1]
  Bliss excess: 0.0738
[2]
  Bliss excess: 0.0881
[3]
  Bliss excess: 0.0559
[4]
  Bliss excess: 0.005
[5]
  Bliss excess: 0.0236
[6]
  Bliss excess: 0.0404
[7]
  Bliss excess: 0.0246
[8]
  Bliss excess: 0.0691
[9]
  Bliss excess: 0.0633
[11]
  Bliss excess: 0.0486
[12]
  Bliss excess: -0.0076
[13]
  Bliss excess: -0.0372
[14]
  Bliss excess: 0.0271
[15]
  Bliss excess: 0.051
[16]
  Bliss excess: 0.0508
[18]
  Bliss excess: 0.0164
[19]
  Bliss excess: 0.0628

## CC(=O)Nc1cccc(-n2c(=O)n(C3CC3)c(=O)c3c(Nc4ccc(I)cc4F)n(C)c(=O)c(C)c32)c1 [Trametinib] + Cc1nc(-c2cn3c(n2)-c2ccc(-c4cnn(C(C)(C)C(N)=O)c4)cc2OCC3)n(C(C)C)n1 [Taselisib] (first compound max 1 µM, 7x7, partner max 10 µM)
[1]
  Bliss excess: 0.289
[2]
  Bliss excess: 0.186
[3]
  Bliss excess: 0.0984
[4]
  Bliss excess: -0.0331
[5]
  Bliss excess: 0.142
[6]
  Bliss excess: 0.142
[7]
  Bliss excess: -0.0353
[8]
  Bliss excess: 0.0972
[9]
  Bliss excess: 0.197
[10]
  Bliss excess: 0.0082
[11]
  Bliss excess: 0.27
[12]
  Bliss excess: -0.0174
[13]
  Bliss excess: 0.185
[14]
  Bliss excess: 0.0292
[15]
  Bliss excess: 0.0452
[16]
  Bliss excess: 0.0072
[17]
  Bliss excess: -0.0125
[18]
  Bliss excess: 0.127
[19]
  Bliss excess: 0.0556

## CC1(C)CCC(CN2CCN(c3ccc(C(=O)NS(=O)(=O)c4ccc(NCC5CCOCC5)c([N+](=O)[O-])c4)c(Oc4cnc5[nH]ccc5c4)c3)CC2)=C(c2ccc(Cl)cc2)C1 [Venetoclax] + C1CN(CCC1(C(=O)N[C@@H](CCO)C2=CC=C(C=C2)Cl)N)C3=NC=NC4=C3C=CN4 [Capivasertib] (first compound max 1 µM, 7x7, partner max 3 µM)
[1]
  Bliss excess: 0.0066
[2]
  Bliss excess: 0.0315
[3]
  Bliss excess: -0.0504
[4]
  Bliss excess: -0.0357
[5]
  Bliss excess: -0.013
[6]
  Bliss excess: 0.0067
[7]
  Bliss excess: -0.0299
[8]
  Bliss excess: -0.0592
[9]
  Bliss excess: 0.03
[10]
  Bliss excess: -0.105
[11]
  Bliss excess: 0.0474
[12]
  Bliss excess: 0.0236
[13]
  Bliss excess: -0.0554
[14]
  Bliss excess: -0.0379
[15]
  Bliss excess: 0.0321
[16]
  Bliss excess: -0.028
[17]
  Bliss excess: -0.0227
[18]
  Bliss excess: -0.035
[19]
  Bliss excess: -0.001

## CC1(C)CCC(CN2CCN(c3ccc(C(=O)NS(=O)(=O)c4ccc(NCC5CCOCC5)c([N+](=O)[O-])c4)c(Oc4cnc5[nH]ccc5c4)c3)CC2)=C(c2ccc(Cl)cc2)C1 [Venetoclax] + C=CCn1c(=O)c2cnc(Nc3ccc(N4CCN(C)CC4)cc3)nc2n1-c1cccc(C(C)(C)O)n1 [AZD1775] (first compound max 1 µM, partner max 1 µM)
[1]
  Bliss excess: 0.136
[2]
  Bliss excess: 0.117
[3]
  Bliss excess: -0.0821
[4]
  Bliss excess: -0.053
[5]
  Bliss excess: -0.0213
[6]
  Bliss excess: -0.0641
[7]
  Bliss excess: 0.0355
[8]
  Bliss excess: 0.0003
[9]
  Bliss excess: -0.0553
[10]
  Bliss excess: -0.0898
[11]
  Bliss excess: -0.072
[12]
  Bliss excess: 0.0018
[13]
  Bliss excess: -0.0041
[14]
  Bliss excess: 0.0069
[15]
  Bliss excess: 0.114
[16]
  Bliss excess: -0.0126
[17]
  Bliss excess: -0.0744
[18]
  Bliss excess: -0.0009
[19]
  Bliss excess: 0.0027

## CC1(C)CCC(CN2CCN(c3ccc(C(=O)NS(=O)(=O)c4ccc(NCC5CCOCC5)c([N+](=O)[O-])c4)c(Oc4cnc5[nH]ccc5c4)c3)CC2)=C(c2ccc(Cl)cc2)C1 [Venetoclax] + CCN(CCO)CCCOc1ccc2c(Nc3cc(CC(=O)Nc4cccc(F)c4)[nH]n3)ncnc2c1 [AZD2811] (first compound max 1 µM, 7x7, partner max 1 µM)
[1]
  Bliss excess: 0.0051
[2]
  Bliss excess: -0.0368
[3]
  Bliss excess: 0.0408
[4]
  Bliss excess: -0.0608
[5]
  Bliss excess: -0.125
[6]
  Bliss excess: 0.0261
[7]
  Bliss excess: 0.0005
[8]
  Bliss excess: -0.038
[9]
  Bliss excess: 0.0167
[10]
  Bliss excess: -0.0473
[11]
  Bliss excess: 0.0071
[12]
  Bliss excess: 0.075
[13]
  Bliss excess: -0.0422
[14]
  Bliss excess: -0.0219
[15]
  Bliss excess: 0.0905
[16]
  Bliss excess: -0.0456
[17]
  Bliss excess: -0.0394
[18]
  Bliss excess: 0.0781
[19]
  Bliss excess: -0.0002

## CC1(C)CCC(CN2CCN(c3ccc(C(=O)NS(=O)(=O)c4ccc(NCC5CCOCC5)c([N+](=O)[O-])c4)c(Oc4cnc5[nH]ccc5c4)c3)CC2)=C(c2ccc(Cl)cc2)C1 [Venetoclax] + CN(C)CCCOc1ccc(-c2ccc3ncc4c(c3c2)n(C2CCOCC2)c(=O)n4C)cn1 [AZD0156] (first compound max 1 µM, 7x7, partner max 1 µM)
[1]
  Bliss excess: -0.0022
[2]
  Bliss excess: 0.0196
[3]
  Bliss excess: -0.0255
[4]
  Bliss excess: -0.0328
[5]
  Bliss excess: -0.0469
[6]
  Bliss excess: -0.0047
[7]
  Bliss excess: -0.0205
[8]
  Bliss excess: -0.0172
[9]
  Bliss excess: -0.0728
[10]
  Bliss excess: -0.0712
[11]
  Bliss excess: -0.0446
[12]
  Bliss excess: -0.0023
[13]
  Bliss excess: -0.028
[14]
  Bliss excess: -0.0429
[15]
  Bliss excess: 0.0766
[16]
  Bliss excess: -0.0466
[17]
  Bliss excess: -0.0566
[18]
  Bliss excess: 0.0004
[19]
  Bliss excess: -0.0681

## CC1(C)CCC(CN2CCN(c3ccc(C(=O)NS(=O)(=O)c4ccc(NCC5CCOCC5)c([N+](=O)[O-])c4)c(Oc4cnc5[nH]ccc5c4)c3)CC2)=C(c2ccc(Cl)cc2)C1 [Venetoclax] + COc1cc(Nc2ncc3c(n2)-c2ccc(Cl)cc2C(c2c(F)cccc2OC)=NC3)ccc1C(=O)O [Alisertib] (first compound max 1 µM, 7x7, partner max 10 µM)
[1]
  Bliss excess: 0.066
[2]
  Bliss excess: -0.0938
[3]
  Bliss excess: -0.0449
[4]
  Bliss excess: 0.0194
[5]
  Bliss excess: 0.0928
[6]
  Bliss excess: -0.0024
[7]
  Bliss excess: -0.0051
[8]
  Bliss excess: -0.0167
[9]
  Bliss excess: 0.13
[10]
  Bliss excess: -0.0135
[11]
  Bliss excess: 0.0134
[12]
  Bliss excess: 0.294
[13]
  Bliss excess: -0.0456
[14]
  Bliss excess: -0.0205
[15]
  Bliss excess: 0.141
[16]
  Bliss excess: -0.012
[17]
  Bliss excess: -0.0852
[18]
  Bliss excess: -0.026
[19]
  Bliss excess: -0.029
